In US8324191B2, “Combined calcium, magnesium and vitamin D supplements” (Biolink Life Sciences, Inc, priority 2008, dated 2012):
Like-named read-outs stand apart in the source and are kept apart here.

What was measured:
[1] = conventional magnesium salts; Firoz and Graber 2001; cited from earlier work
[2] = doses of 1 g calcium citrate daily; cited from earlier work
[3] = cited from earlier work
[4] = cited from earlier work; remark: listed apart in the source
[5] = 1 gram calcium/day as the citrate, 1,471 healthy older women; cited from earlier work
[6] = Availability of magnesium and lipoate ions from aqueous suspensions of the salt; format: physicochemical; details: aqueous solutions, pH about 4 to about 8
Excerpt: Thus, its bioavailability is unexpectedly high, as compared to conventional, water-insoluble magnesium salts. Further, R-(+)-alpha-lipoic acid is a widely distributed physiological antioxidant that combines free radical scavenging properties with an ability, after intracellular reduction to dihydrolipoic acid, to regenerate the levels of other nonenzymatic and enzymatic antioxidants, including glutathione (GSH), ascorbate, α-tocopherol, catalase and GSH peroxidase. The physiological form of R-(+)-α-lipoate, the R-(+)-enantiomer, is present in all eukaryotic and prokaryotic cells.

[7] = 250-750 mg magnesium daily as magnesium hydroxide, 2 years; cited from earlier work

With `[O]=[Mg]` [Magnesium oxide] as the molecule, how does the “Bioavailability (as fractional absorption of administered dose)” value [1] read?
Its value is 4%.

For `CC(O)C(=O)[O-].CC(O)C(=O)[O-].[Mg+2]` (stereo not drawn) [Magnesium lactate], which “Bioavailability (as fractional absorption of administered dose)” value [1] is on record?
The value was 12%.

For `O=C([O-])CC(O)(CC(=O)[O-])C(=O)[O-].O=C([O-])CC(O)(CC(=O)[O-])C(=O)[O-].[Ca+2].[Ca+2].[Ca+2]` [calcium citrate], which “risk for myocardial infarction, stroke and death” value [2] is on record?
Its value is “increase risk”.

For vitamin D, which fracture benefit ([3]; 400 IU per day) is on record?
Its fracture benefit is “failed to demonstrate any fracture benefit”.

What about the “reduction of risk of any non-vertebral fracture” value ([3]; 700 to 800 IU per day) of the same molecule?
The value was 23%.

What about the “reduction of risk of hip fracture” value ([3]; 700 to 800 IU per day) of the same molecule?
Its value is 26%.

With `O=C(O)CCCCC1CCSS1` (stereo not drawn) [RS-Alpha-lipoic acid, RS-alpha-lipoic acid] as the molecule, how does the storage life ([4]; closed and sealed amber container at room temperature) read?
The storage life was “a year or more”.

Which “Bioavailability (as fractional absorption of administered dose)” value [1] does the source give for Magnesium citrate here?
Its value is 12%.

For `O=C(O)CCCCC1CCSS1` (stereo not drawn) [R-(+)-alpha-lipoic acid], which storage life ([4]; closed and sealed amber container at refrigerated temperatures) is on record?
Its storage life is “within a few months”.

For `[Ca]` [calcium], which “effect on bone density” value [5] is on record?
Its value is “beneficial effect on bone density”.

For Magnesium R-(+)-alpha-lipoate, which “availability of magnesium and R-(+)-alpha-lipoate ions from suspensions” value [6] is on record?
Its value is “available”.

For `[Mg+2].[OH-].[OH-]` [Magnesium hydroxide], which “Bioavailability (as fractional absorption of administered dose)” value [1] is on record?
Its value is 4%.

What about the bone density [7] of the same molecule?
The bone density was “significant increase in bone density”.

What about the fractures [7] of the same molecule?
Its fractures is “prevented fractures”.

For `[Cl-].[Cl-].[Mg+2]` [Magnesium chloride], which “Bioavailability (as fractional absorption of administered dose)” value [1] is on record?
The value was 12%.
